Measured values as given in patent US8709745B2, “Methods for isolating ligands of the human bitter taste receptor TAS2R49” (Deutsches Institut für Ernährungsforschung Potsdam-Rehbrücke, priority 2009, dated 2014).
Entries after “also recorded” stand apart in the source; their conditions may differ. Where a name gives a salt, the structure may show the parent alone.

Assays:
[1] = biological target: T1, TAS2R49 human bitter taste receptor (Homo sapiens, UniProt P59543, K79E); test: FLIPR calcium assay in HEK-293T Gα16gust44 cells transiently transfected with SST-hTAS2R49-HSV; assay type: cell-based; details: for activation of hTAS2R49 (calcium response): hTAS2R49 transfected vs mock transfected cells
T1 construct: first 45 amino acids of rat somatostatin receptor type 3 (SST), membrane-targeting signal (N); expressed in transfected cells; host or cells: HEK-293T cells stably expressing the chimeric G-protein alpha subunit Gα16gust44; vector pcDNA5/FRT
T1 sequence (P59543 1-309 K79E): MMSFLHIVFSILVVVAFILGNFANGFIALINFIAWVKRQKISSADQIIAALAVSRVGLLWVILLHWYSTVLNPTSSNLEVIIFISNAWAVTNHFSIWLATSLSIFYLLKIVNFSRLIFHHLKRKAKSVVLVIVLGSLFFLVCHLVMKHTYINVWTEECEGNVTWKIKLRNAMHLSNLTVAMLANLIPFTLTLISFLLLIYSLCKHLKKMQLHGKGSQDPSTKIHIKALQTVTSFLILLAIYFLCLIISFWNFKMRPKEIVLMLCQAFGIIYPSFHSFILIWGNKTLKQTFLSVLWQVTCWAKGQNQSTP
Description: The TAS2R49 human bitter taste receptor was functional expressed in a heterologouse cell system. Therefore, the coding region for this hTAS2R was cloned into a vector (pcDNA5/FRT, Invitrogen, San Diego, Calif.). The construct includes the sequence for the first 45 amino acids of a rat somatostatin receptor type 3 (SST) coupled to the N-terminal end of the receptor for an improvement of receptor membrane targeting. At the C-terminus of the bitter taste receptor a herpes simplex virus glycoprotein D (HSV) epitope was added for immunocytochemical detection. The SST-hTAS2R49-HSV pcDNA5/FRT plasmid construct was transiently transfected into HEK-293T cells stably expressing the chimeric G-protein a subunit Gal6gust44. An empty pcDNA5/FRT plasmid /vector were used as negative control. The cells were seeded into 96-well plates (Greiner Bio-One, Frickenhausen, Germany) under conventional cell culture conditions (Dulbecco's Modified Eagle Medium (DMEM)/10% FCS/1% penicillin/streptomycin; 37° C., 5% CO2, 95% humidity) and 24-26 h later transfected with 150 ng plasmid DNA and 300 ng Lipofectamine 2000 (Invitrogen, San Diego, Calif.). 24-26 h later the cells were loaded with the calcium sensitive dye Fluo4-acetoxymethyl (Molecular Probes, Karlsruhe, Germany) with a final concentration of 20 μM in serum-free DMEM medium. The organic anion-transport inhibitor probenecid (Sigma Aldrich, München, Germany) was added to the dye/medium solution to reduce leakage of the indicator after cleavage of the ester bonds. 1 h after loading, the well plates were washed 3 times with 30 min incubation between the last second wash steps (protected from light) by Denley cell washer (Thermo Fisher Scientific Inc., Waltham, Mass.). The washing solution contains 130 mM NaCl, 5 mM KCl, 10 mM HEPES with pH 7.4, 2 mM CaCl2, and 10 mM Glucose. The agonist was solved and diluted in wash solution.
The elevation of the cytosolic calcium concentration was measured after application of the test substances using the Fluorometric Imaging Plate Reader (FLIPR, Molecular Devices, Munich, Germany) at […]. The vitality of the cells was verified by a second application of 100 nM somatostatin-14, an agonist of the endogenous […] somatostatin receptor type 2. To exclude unspecific responses and false positive signals, mock transfected cells were always measured on the same plate with the same compound concentration each. All experiments were performed at least twice. For the calculation of the dose-response function, the signals of the wells with the same concentration of the agonist were automatically normalized with the control wells (mock transfection, Fmock) by FLIPR384® software (Molecular Devices, Munich, Germany). To consider the dye loading efficiency and the cell number the background fluorescence was measured for each plate/each well and denoted as signal test. […] The calculation of the EC50 values were prepared in SigmaPlot 9.0 by nonlinear regression to the function f(x)=100/[1+(EC50/x)nH], where x is the agonist concentration and nH is the Hill coefficient.

[2] = vendor property list; cited from earlier work
[3] = averaged dose response curve (n=5), FIG. 1

EC50 [1, 3] [µM] | threshold [1, 3] [mM] | activation of hTAS2R49 (calcium response) ([1]; listed as Diphenidol) | Structure (SMILES) | activation of hTAS2R49 (calcium response) [1] | water solubility [2]
42 ± 13 | ~0.01 | – | O=C(O)c1cc(=O)c2c(OCC(O)COc3cccc4oc(C(=O)O)cc(=O)c34)cccc2o1 [cromolyn] | responded robustly; also recorded: effective agonist of hTAS2R49 | –
– | – | – | O=C(O)c1cc(=O)c2c(OCC(O)COc3cccc4oc(C(=O)O)cc(=O)c34)cccc2o1 [Cromolyn sodium, disodium salt of 5,5′-[(2-hydroxytrimethylene)dioxy]bis[4-oxo-4H-1-benzopyran-2-carboxylate]] | – | water-soluble
– | – | agonist for hTAS2R49 | OC(CCCN1CCCCC1)(c1ccccc1)c1ccccc1 [diphenidol] | activated the receptor | –
